Measured values reported in US11021481B2, “Substituted isoindolin-1-ones and 2,3-dihydro-1h-pyrrolo[3,4-c]pyridin-1-ones as HPK1 antagonists” (Nimbus Saturn, Inc., priority 2019, dated 2021).

What follows are compounds tested against HPK1 (Homo sapiens (Human), UniProt Q92918) (assay: HPK1 biochemical enzyme assay (microfluidic mobility shift assay)). Details: 1.5 nM HPK1, ATP 1 mM final, 30 min preincubation, 60 min at RT, Caliper EZ Reader; read-out: HPK1 1000UMATP caliper IC50.
Experimental: HPK1 biochemical enzyme assay: HPK1 enzyme inhibition was measured using a microfluidic mobility shift assay. […] Test compounds were titrated in ten point curves (top final assay concentration 3 μM), and preincubated with enzyme/substrate mix for 30 min prior to initiation of the reaction by addition of ATP (1 mM final concentration) and substrate (1 μM final concentration; Carna Biosciences) diluted in assay buffer supplemented by MgCl2 (final assay concentration of 5 mM). Following 60 min incubation at RT, the reaction was terminated by addition of 60 µl/well termination buffer (Carna Biosciences) and signal determination using aCaliper EZ Reader (Perkin Elmer, UK).
The compound numbers correspond to the compound numbers in Table 1.

Chain of HPK1 (Q92918 whole entry): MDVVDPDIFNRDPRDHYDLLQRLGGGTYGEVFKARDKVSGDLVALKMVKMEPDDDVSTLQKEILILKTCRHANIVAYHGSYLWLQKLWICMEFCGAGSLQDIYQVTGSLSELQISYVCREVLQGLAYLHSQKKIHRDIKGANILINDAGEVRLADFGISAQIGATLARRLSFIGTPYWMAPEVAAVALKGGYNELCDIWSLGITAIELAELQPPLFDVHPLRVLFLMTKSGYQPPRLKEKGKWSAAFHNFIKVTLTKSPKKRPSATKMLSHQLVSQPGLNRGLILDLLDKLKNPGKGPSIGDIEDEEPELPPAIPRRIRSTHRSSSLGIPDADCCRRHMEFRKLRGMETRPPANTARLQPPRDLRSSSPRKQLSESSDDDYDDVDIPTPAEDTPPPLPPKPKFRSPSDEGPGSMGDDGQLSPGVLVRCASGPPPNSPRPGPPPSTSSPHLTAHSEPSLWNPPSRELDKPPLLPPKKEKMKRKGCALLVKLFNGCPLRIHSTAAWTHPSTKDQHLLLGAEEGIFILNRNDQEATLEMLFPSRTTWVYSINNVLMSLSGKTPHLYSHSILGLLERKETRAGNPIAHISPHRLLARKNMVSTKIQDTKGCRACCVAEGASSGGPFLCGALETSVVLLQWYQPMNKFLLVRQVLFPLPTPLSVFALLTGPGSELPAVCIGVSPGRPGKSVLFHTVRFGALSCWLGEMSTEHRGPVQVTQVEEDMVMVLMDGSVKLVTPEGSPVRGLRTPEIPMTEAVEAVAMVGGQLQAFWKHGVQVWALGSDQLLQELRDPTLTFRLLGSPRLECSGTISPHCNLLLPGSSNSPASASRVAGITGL

IC50 [nM]	SMILES
< 100	Cc1ccn2c(-c3ccc(Nc4ccc(N5CCOC(CN(C)C)C5)cn4)c4c3CNC4=O)cnc2c1F (stereo in doubt) [I-614, (R)-7-((5-(2-((dimethylamino)-methyl)mor-pholino)pyridin-2-yl)amino)-4-(8-fluoro-7-methylimidazo [1,2-a]pyridin-3-yl)isoindolin-1-one]
< 100	CN1CCN(c2ccc(Nc3cnc(-c4cnc5c(F)cccn45)c4c3C(=O)NC4)nc2)C[C@H]1C(C)(C)O (stereo in doubt) [I-621, (R]-4-(8-fluoroimidazo [1,2-a]pyridin-3-yl)-7-((5-(3-(2-hydroxypropan-2-yl)-4-methylpiperazin-1-yl)pyridin-2-yl)amino)-2.3-dihydro-1H-pyrrolo[3,4-c]pyridin-1-one]
< 100	CN1CCN(c2ccc(Nc3cnc(-c4cnc5c(F)cccn45)c4c3C(=O)NC4)nc2)CC1C(C)(C)O (stereo in doubt) [I-622, (S)-4-(8-fluoroimidazo [1,2-a]pyridin-3-yl)-7-((5-(3-(2-hydroxypropan-2-yl)-4-methylpiperazin-1-yl)pyridin-2-yl)amino)-2.3-dihydro-1H-pyrrolo[3,4-c]pyridin-1-one]
< 100	COCC1CN(c2ccc(Nc3ccc(-c4cnc5nc(C)ccn45)c4c3C(=O)NC4)nc2)CCO1 (stereo in doubt) [I-628, (R)-7-((5-(2-(methoxymeth-yl)morpho-lino)pyridin-2-yl)amino)-4-(7-methylimidazol',2-a]pyriinidin-3-yl)isoindolin-1-one]
< 100	COCC1CN(c2ccc(Nc3ccc(-c4cnc5nc(C)ccn45)c4c3C(=O)NC4)nc2)CCO1 (stereo in doubt) [I-629, (S)-7-((5-(2-(methoxymeth-yl)morpho-lino)pyridin-2-yl)amino)-4-(7-methylimidazo [1,2-a]pyrimidin-3-yl) isoindolin-1-one]
< 100	COCC1CN(c2ccc(Nc3ccc(-c4ncnc5c4ccn5C)c4c3C(=O)NC4)nc2)CCO1 (stereo in doubt) [I-649, (R)-7-((5-(2-(methylmeth-yl)morpho-lino)pyridin-2-yl)amino)-4-(7-methyl-7]-4-pyrrolo[2,3-d]pyrimidin-4-yl)isoindolin-1-one]
< 100	COCC1CN(c2ccc(Nc3ccc(-c4ncnc5c4ccn5C)c4c3C(=O)NC4)nc2)CCO1 (stereo in doubt) [I-650, (S)-7-((5-(2-(methoxymeth-yl)morpho-lino)pyridin-2-yl)amino)-4-(7-methyl-7H-pyrrolo[2,3-d|pyrimidin-4-yl)isoindolin-1-one]
< 100	CN1CC(O)(C2CCCN(c3ccc(Nc4ccc(-c5cnc6cc(F)ccn56)c5c4C(=O)NC5)nc3)C2)C1 (stereo in doubt) [I-678, (R)-4-(7-fluoroimidazo [1,2-a]pyridin-3-yl)-7-((5-(3-(3-hydroxy-1-methylazetidin-3-yl)piperidin-1-yl)pyridin-2-yl)amino)isoin-dolin-1-one]
< 100	CN1CC(O)(C2CCCN(c3ccc(Nc4ccc(-c5cnc6cc(F)ccn56)c5c4C(=O)NC5)nc3)C2)C1 (stereo in doubt) [I-679, (S)-4-(7-fluoroimidazo [1,2-a]pyridin-3-yl)-7-((5-(3-(3-hydroxy-1-methylazetidin-3-yl)piperidin-1-yl)pyridin-2-yl)amino)isoin-dolin-1-one]
< 100	CN(C)C1(C2CN(c3ccc(Nc4ccc(-c5cnc6cc(F)ccn56)c5c4C(=O)NC5)nc3)CCO2)CC1 (stereo in doubt) [I-686, (R)-7-((5-(2-(1-(dimethylami-no)cyclopropyl)morphoIino)py-ridin-2-yl)amino)-4-(7-fluoroimidazo [1,2-a]pyridin-3-yl)isoindolin-1-one]
< 100	CN(C)C1(C2CN(c3ccc(Nc4ccc(-c5cnc6cc(F)ccn56)c5c4C(=O)NC5)nc3)CCO2)CC1 (stereo in doubt) [I-687, (S)-7-((5-(2-(1-(dimethylami-no)cyclopropyl)morpholino)py-ridin-2-yl)amino)-4-(7-fluoroimidazo [1,2-a]pyridin-3-yl)isoindolin-1-one]
< 100	CN(C)Cc1nc(Nc2cnc(-c3ccnc4c3ccn4C)c3c2C(=O)NC3)ccc1[C@@H]1CCOC1 (stereo in doubt) [I-707]
< 100	Cc1cccc2c(-c3ccc(Nc4ccc(C5CCOC5)c(CN(C)C)n4)c4c3CNC4=O)cnn12 (stereo in doubt) [I-710, (R)-7-((6-((dimethylamino)-methyl)-5-(tetrahydrofuran-3-yl)pyridin-2-yl)amino)-4-(7-methylpyra-zolo[1,5-a]pyridin-3-yl)isoindolin-1-one]
< 100	O=C1NCc2c(-c3cnc4cc(F)ccn34)ccc(Nc3ccc([C@H]4CCOC4)c(CN4CCOCC4)n3)c21 (stereo in doubt) [I-720, (SMK7-fluoroimidazo [1,2-a]pyridin-3-yl)-7-((6-(morpholinomethyl)-5-(tetrahydrofuran-3-yl)pyridin-2-yl)amino)isoin-dolin-1-one]
< 100	O=C1NCc2c(-c3cnc4cc(F)ccn34)ccc(Nc3ccc(C4CCOC4)c(CN4CCOCC4)n3)c21 (stereo in doubt) [I-721, (R)-4-(7-fluoroimidazo [1,2-a]pyridin-3-yl)-7-((6-(morpliolinomethyl)-5-(tetrahydrofuran-3-yl)pyridin-2-yl)amino)isoin-dolin-1-one]
< 100	CNCc1nc(Nc2ccc(-c3cnc4cc(F)ccn34)c3c2C(=O)NC3)ccc1C1CCOC1 (stereo in doubt) [I-722, (S)-4-(7-fluoroimidazo [1,2-a]pyridin-3-yl)-7-((6-((methyl-amino)methyl)-5-(tetrahydrofuran-3-yl)pyridin-2-yl)amino)isoin-dolin-1-one]
< 100	CNCc1nc(Nc2ccc(-c3cnc4cc(F)ccn34)c3c2C(=O)NC3)ccc1C1CCOC1 (stereo in doubt) [I-723, (R)-4-(7-fluoroimidazo [1,2-a]pyridin-3-yl)-7-((6-((methyl-amino)methyl)-5-(tetrahydrofuran-3-yl)pyridin-2-yl)amino)isoin-dolin-1-one]
< 100	COCCN(C)Cc1nc(Nc2ccc(-c3cnc4cc(F)ccn34)c3c2C(=O)NC3)ccc1C1CCOC1 (stereo in doubt) [I-727, (R)-4-(7-fluoroimidazo [1,2-a]pyridin-3-yl)-7-((6-(((2-methoxyethyl) (methyl)-amino)methyl)-5-(tetrahydrofuran-3-yl)pyridin-2-yl)amino)isoin-dolin-1-one]
< 100	COCCN(C)Cc1nc(Nc2ccc(-c3cnc4cc(F)ccn34)c3c2C(=O)NC3)ccc1C1CCOC1 (stereo in doubt) [I-728, (S)-4-(7-fluoroimidazo [1,2-a]pyridin-3-yl)-7-(6-(((2-methoxyethyl) (methyl)-amino)methyl)-5-(tetrahydrofuran-3-yl)pyridin-2-yl)amino)isoin-dolin-1-one]
< 100	CC(C)N(C)Cc1nc(Nc2ccc(-c3cnc4cc(F)ccn34)c3c2C(=O)NC3)ccc1C1CCOC1 (stereo in doubt) [I-729, (S)-4-(7-fluoroimidazo [1,2-a]pyridin-3-yl)-7-((6-((isopropyl(methyl)amino)methyl)-5-(tetrahydrofuran-3-yl)pyridin-2-yl)amino)isoin-dolin-1-one]
< 100	CC(C)N(C)Cc1nc(Nc2ccc(-c3cnc4cc(F)ccn34)c3c2C(=O)NC3)ccc1C1CCOC1 (stereo in doubt) [I-730, (R)-4-(7-fluoroimidazo [1,2-a]pyridin-3-yl)-7-((6-((isopropyl(methyl)amino)methyl)-5-(tetrahydrofuran-3-yl)pyridin-2-yl)amino)isoin-dolin-1-one]
< 100	Cc1ccc2c(-c3ccc(Nc4ccc(C5CCOC5)c(CN(C)C)n4)c4c3CNC4=O)cnn2c1 (stereo in doubt) [I-731, (S)-7-((6-((dimethylamino)-methyl)-5-(tetrahydrofuran-3-yl)pyridin-2-yl)amino)-4-(6-methylpyra-zolo[1,5-a]pyridin-3-yl)isoindolin-1-one]
< 100	Cc1ccc2c(-c3ccc(Nc4ccc(C5CCOC5)c(CN(C)C)n4)c4c3CNC4=O)cnn2c1 (stereo in doubt) [I-732, (R)-7-((6-((dimethylamino)-methyl)-5-(tetrahydrofuran-3-yl)pyridin-2-yl)amino)-4-(6-methylpyra-zolo[1,5-a]pyridin-3-yl)isoindolin-1-one]
< 100	CN(CCO)Cc1nc(Nc2ccc(-c3cnc4cc(F)ccn34)c3c2C(=O)NC3)ccc1C1CCOC1 (stereo in doubt) [I-733, (S)-4-(7-fluoroimidazo [1,2-a]pyridin-3-yl)-7-(6-(((2-hydroxy-ethyl)(methyl)-amino)methyl)-5-(tetrahydrofuran-3-yl)pyridin-2-yl)amino)isoin-dolin-1-one]
< 100	CN(CCO)Cc1nc(Nc2ccc(-c3cnc4cc(F)ccn34)c3c2C(=O)NC3)ccc1C1CCOC1 (stereo in doubt) [I-734, (R)-4-(7-fluoroimidazo [1,2-a]pyridin-3-yl)-7-((6-(((2-hydroxyethy (methyl)amino)methyl)-5-(tetrahydrofuran-3-yl)pyridin-2-yl)amino)isoin-dolin-1-one]

SMILES	IC50 [nM]
COCC1CN(c2ccc(Nc3ccc(-c4cnc5cc(F)ccn45)c4c3C(=O)NC4)nc2CN(C)C)CCO1 (stereo in doubt) [I-712, (S)-7-((6-((dimethylamino)-methyl)-5-(2-(methoxymeth-yl)morpho-lino)pyridin-2-yl)amino)-4-(7-fluoroimidazo [1,2-a]pyridin-3-yl)isoindolin-1-one]	< 100
